Laboratory results: US11160798B2, “Neuroprotective CB2 receptor agonists” (THE CLEVELAND CLINIC FOUNDATION, priority 2012, dated 2021)

Key:
CB2 receptor = CB2 receptor (Homo sapiens, UniProt P34972); conditions: cited from earlier work
Aβ1-40 = assay: Clearance of Aβ1-40 injected in the hippocampal CA1 area (immunofluorescence); format: in vivo, rat
Procedure: (§1) Animals were divided into several groups ([…]). The Aβ1-40 group received bilateral intracerebral microinjection of Aβ1-40 fibrils once and saline intraperitoneally (i.p.) daily for 14 days. The Aβ1-40+MDA7 group received bilateral intracerebral microinjection of Aβ1-40 fibrils once and 15 mg/kg MDA7 i.p. daily for 14 days. Other cohorts received smaller doses of MDA7 (5 mg/kg or 1.5 mg/kg) i.p. daily for 14 days to determine the dose-response characteristics for MDA7. In other groups, AM630 (a CB2 antagonist) 5 mg/kg i.p. was administered daily for 14 days either alone (Aβ1-40+AM630 group) or 15 min prior to MDA7 (15 mg/kg i.p.) administration (Aβ1-40+MDA7+AM630 group) to rats injected with β1-40 fibrils. MDA7 group and control group received bilateral intracerebral microinjection of artificial cerebrospinal fluid (130 mM NaCl, 2.6 mM KCl. 4.3 mM MgCl2 and 1.8 mM CaCl2) once and 15 mg/kg MDA7 or saline i.p. daily for 14 days, respectively. Intraperitoneal administration of AM630, MDA7 or saline started on the same day after intracerebral microinjection of Aβ1-40. All drugs were prepared coded. Decoding was performed at the end of all experiments.
Microinjection of amyloid fibrils into the hippocampal CA1 area. Rats were anesthetized with sodium pentobarbital (45 mg/kg i.p.) and restrained in a stereotaxic apparatus. Aβ1-40 fibrils were formed as described previously. […]
Immunostaining. […] Three to six sections from each rat were randomly selected and were analyzed using Leica DMLB fluorescence microscope (Leica Microsystems Wetzlar GmbH, Germany) by one investigator, who was blinded to the origin of tissue being examined. Images were quantified using MCID Core software version 7.0 (InterFocus Imaging Ltd, Cambridge, England).

[1] = tested on: cognitive impairment induced by Aβ1-40; assay: Morris water maze test in rats microinjected with Aβ1-40 fibrils; format: in vivo, rat; conditions: Aβ1-40-injected rats
Procedure: Animals and treatment protocol. All animal procedures were approved by the Animal Care and Use Committee of Cleveland Clinic. Animals were housed the Institutional Biological Rodent Unit on a 12/12 h light/dark cycle with water and food pellets available ad libitum. Adult male Sprague-Dawley (Charles River, Wilmington, Mass.) rats weighing 200-250 g were used, and all experiments were performed during the light cycle.
as §1
Microinjection of amyloid fibrils into the hippocampal CA1 area. Rats were anesthetized with sodium pentobarbital (45 mg/kg i.p.) and restrained in a stereotaxic apparatus. Aβ1-40 fibrils were formed as described previously. Chacon, et al., Mol Psychiatry 9(10), 953-61 (2004), Aβ1-40 fibrils (10 μg/3 μl) or 3 μl of artificial cerebrospinal fluid were injected stereotaxically and bilaterally into each hippocampus (coordinates; Bregma −3.5 mm anteroposterior, ±2.0 mm mediolateral, and −3.0 mm dorsoventral) using a 10 μl Hamilton syringe with a 27 G stainless steel needle at a rate of 0.5 μl/min. This experimental model has been used for studying AD. Ahmed, et al., Neuroscience 169(3), 1296-306 (2010).
Morris water maze test. A cohort of rats (n=10 per group) was tested 15 days after surgery as described by Chacon et al. (ibid). Testing was conducted in all groups at the same time of the day. The experimental apparatus consisted of a circular pool (120 cm in diameter, 45 cm high). An invisible platform (15 cm in diameter, 35 cm high) was placed 1.5 cm below the surface of the water. The water temperature was kept at 24-28° C. The pool was located in a test room, and many clues external to the maze were visible from the pool, which could be used by the rats for spatial orientation. The position of the cues was kept constant throughout the task. Each rat underwent four trials per day for five days. During each trial (memory acquisition), the rats were placed randomly at one of four fixed starting points and were allowed to swim for 120 s or until they escaped from the water by reaching the platform. The platform was located in the same position throughout the test in the middle of one quadrant. The start location was moved to a different quadrant in each trial so that no single start location was used in consecutive trials. In each training session, the latency to escape to the hidden platform was recorded. After the rats reached the platform, they were allowed to rest there for 20 seconds, and they then were removed from the pool. An inter-trial interval of at least 4 minutes was used to ensure that each rat's performance was not impaired by fatigue. After completing four trials, the rats were removed from the pool, dried and returned to their home cage. […]

Sequence of CB2 receptor (P34972 whole entry): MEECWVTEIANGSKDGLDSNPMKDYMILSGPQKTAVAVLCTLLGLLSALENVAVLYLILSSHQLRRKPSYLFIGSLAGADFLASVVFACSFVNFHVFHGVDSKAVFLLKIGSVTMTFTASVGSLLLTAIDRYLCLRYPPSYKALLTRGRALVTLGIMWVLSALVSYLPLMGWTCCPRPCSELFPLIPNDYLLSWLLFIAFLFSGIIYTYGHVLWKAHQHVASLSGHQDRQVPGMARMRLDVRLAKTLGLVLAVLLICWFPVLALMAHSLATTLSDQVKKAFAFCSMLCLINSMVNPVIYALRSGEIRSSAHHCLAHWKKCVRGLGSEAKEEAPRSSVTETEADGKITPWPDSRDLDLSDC

| Compound | activity compared with the other enantiomer (CB2 receptor) | effect of prior AM630 on MDA7-induced removal of Aβ1-40 (Aβ1-40; AM630 5 mg/kg i.p. for 14 days prior to MDA7 15 mg/kg) | clearance of injected Aβ1-40, AM630 alone (Aβ1-40; Aβ1-40-injected rats, AM630 5 mg/kg i.p. alone) | effect on escape latency of AM630 given prior to MDA7 ([1]; AM630 5 mg/kg i.p. 15 min prior to MDA7 15 mg/kg i.p., daily for 14 days) | spatial memory or probe test, AM630 alone ([1]; AM630 5 mg/kg i.p. daily for 14 days alone, vs Aβ1-40 group) |
| --- | --- | --- | --- | --- | --- |
| CC1(Cc2ccccc2)COc2cc(C(=O)N3CCCCC3)ccc21 (stereo in doubt) [S enantiomer, (S)-(3-benzyl-3-methyl-2,3-dihydro-benzofuran-6-yl)-piperidin-1-yl-methanone] | higher activity |  |  |  |  |
| COc1ccc(C(=O)c2c(C)n(CCN3CCOCC3)c3cc(I)ccc23)cc1 [AM630, reference compound] |  | abrogated | no effect | reversed the effect of MDA7 | did not show any improvement |
